Read-outs that look alike come from different tables or passages of the source.
Key:
ABCB1/Pgp = target: T1, ABCB1/Pgp (Homo sapiens, UniProt P08183); assay: ABCB1-ATPase activity in Sf9 membrane vesicles; format: biochemical
T1 construct: made in house; host or cells: Sf9 insect cells
Method: ABC transporter ATPase activity was measured in Sf9 membrane vesicles containing the respective human ABC transporters. For ABCG2/BCRP, the cholesterol level in the vesicles was increased to the level of mammalian cell membranes for full activity. For ABCB1/Pgp 20 μg/150 μL and for ABCG2/BCRP 10 μg/150 μL, vesicles were incubated with 3 mM Mg-ATP for 25 min at 37 °C. The test drugs were dissolved in DMSO and 1 µL was added to the samples. The ABC transporter-related ATPase activity was determined and reference activators (50 µM verapamil for ABCB1 and 5 µM quercetin for ABCG2) served as controls.
Drug-stimulated ATPase activity of the ABCB1 transporter is a well-documented functional assay employed to estimate the substrate or inhibitory features of various drugs. […] In this assay, most transported substrates show a biphasic curve: Low concentrations stimulate, while higher concentrations inhibit, the ATPase activity. In these experiments, we measured the vanadate-sensitive (ABC transporter-related) ABCB1-ATPase activity in membrane vesicles isolated from ABCB1 overexpressing Sf9 cells.

OATP2B1 [1] = target: T2, OATP2B1 (Homo sapiens, UniProt O94956); assay: cell-based
T2 sequence (O94956 1-709): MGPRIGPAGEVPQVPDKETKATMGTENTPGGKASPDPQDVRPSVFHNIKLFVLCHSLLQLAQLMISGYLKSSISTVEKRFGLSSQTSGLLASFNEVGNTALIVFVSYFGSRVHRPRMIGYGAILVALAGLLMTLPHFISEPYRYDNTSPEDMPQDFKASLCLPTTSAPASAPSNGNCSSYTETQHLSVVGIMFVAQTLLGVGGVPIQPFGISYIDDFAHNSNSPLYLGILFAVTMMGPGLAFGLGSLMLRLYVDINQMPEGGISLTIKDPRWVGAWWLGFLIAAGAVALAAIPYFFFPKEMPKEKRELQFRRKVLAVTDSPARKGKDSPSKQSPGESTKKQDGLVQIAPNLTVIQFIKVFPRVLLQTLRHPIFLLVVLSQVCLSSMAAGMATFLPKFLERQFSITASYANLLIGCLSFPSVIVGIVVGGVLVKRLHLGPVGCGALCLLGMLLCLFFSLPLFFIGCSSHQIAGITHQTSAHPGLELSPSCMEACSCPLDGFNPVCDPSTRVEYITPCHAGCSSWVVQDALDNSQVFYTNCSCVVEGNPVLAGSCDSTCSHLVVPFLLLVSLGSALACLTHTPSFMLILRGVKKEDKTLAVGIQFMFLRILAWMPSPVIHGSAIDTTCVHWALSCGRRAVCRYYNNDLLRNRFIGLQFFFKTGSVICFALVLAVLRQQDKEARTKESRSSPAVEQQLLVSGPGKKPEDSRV

OATP1A2 = target: T3, OATP1A2 (Homo sapiens, UniProt P46721); assay: cell-based
T3 sequence (P46721 1-670): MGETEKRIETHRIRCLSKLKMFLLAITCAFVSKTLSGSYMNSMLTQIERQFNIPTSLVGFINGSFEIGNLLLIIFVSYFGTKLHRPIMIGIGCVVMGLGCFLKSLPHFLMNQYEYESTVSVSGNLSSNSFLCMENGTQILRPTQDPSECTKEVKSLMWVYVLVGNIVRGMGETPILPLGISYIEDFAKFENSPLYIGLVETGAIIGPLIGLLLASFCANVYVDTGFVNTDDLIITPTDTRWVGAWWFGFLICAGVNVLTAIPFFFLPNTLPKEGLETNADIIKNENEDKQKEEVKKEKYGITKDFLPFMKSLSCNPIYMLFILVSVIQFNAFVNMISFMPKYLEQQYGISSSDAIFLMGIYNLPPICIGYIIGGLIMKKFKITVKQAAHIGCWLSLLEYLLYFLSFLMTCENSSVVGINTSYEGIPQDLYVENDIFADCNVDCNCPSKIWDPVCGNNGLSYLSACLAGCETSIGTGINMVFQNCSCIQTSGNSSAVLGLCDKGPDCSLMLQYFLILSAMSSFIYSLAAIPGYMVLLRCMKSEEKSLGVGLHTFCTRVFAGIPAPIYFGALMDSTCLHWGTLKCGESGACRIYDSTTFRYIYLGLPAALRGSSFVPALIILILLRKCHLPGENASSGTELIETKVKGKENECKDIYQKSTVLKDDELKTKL

ABCB1/MDR1/Pgp [2] = target: T4, ABCB1/MDR1/Pgp (Homo sapiens, UniProt P08183); conditions: HEK-293/ABCB1 membrane vesicles
ABCB1/MDR1/Pgp [3] = target: T4, ABCB1/MDR1/Pgp; assay: in vitro
ABCC1/MRP1 = ABCC1/MRP1 (Homo sapiens, UniProt P33527); assay: in vitro
OATP2B1 [4] = target: T2, OATP2B1; conditions: A431-OATP2B1 cells, pyranine uptake

T4 sequence (P08183 whole entry): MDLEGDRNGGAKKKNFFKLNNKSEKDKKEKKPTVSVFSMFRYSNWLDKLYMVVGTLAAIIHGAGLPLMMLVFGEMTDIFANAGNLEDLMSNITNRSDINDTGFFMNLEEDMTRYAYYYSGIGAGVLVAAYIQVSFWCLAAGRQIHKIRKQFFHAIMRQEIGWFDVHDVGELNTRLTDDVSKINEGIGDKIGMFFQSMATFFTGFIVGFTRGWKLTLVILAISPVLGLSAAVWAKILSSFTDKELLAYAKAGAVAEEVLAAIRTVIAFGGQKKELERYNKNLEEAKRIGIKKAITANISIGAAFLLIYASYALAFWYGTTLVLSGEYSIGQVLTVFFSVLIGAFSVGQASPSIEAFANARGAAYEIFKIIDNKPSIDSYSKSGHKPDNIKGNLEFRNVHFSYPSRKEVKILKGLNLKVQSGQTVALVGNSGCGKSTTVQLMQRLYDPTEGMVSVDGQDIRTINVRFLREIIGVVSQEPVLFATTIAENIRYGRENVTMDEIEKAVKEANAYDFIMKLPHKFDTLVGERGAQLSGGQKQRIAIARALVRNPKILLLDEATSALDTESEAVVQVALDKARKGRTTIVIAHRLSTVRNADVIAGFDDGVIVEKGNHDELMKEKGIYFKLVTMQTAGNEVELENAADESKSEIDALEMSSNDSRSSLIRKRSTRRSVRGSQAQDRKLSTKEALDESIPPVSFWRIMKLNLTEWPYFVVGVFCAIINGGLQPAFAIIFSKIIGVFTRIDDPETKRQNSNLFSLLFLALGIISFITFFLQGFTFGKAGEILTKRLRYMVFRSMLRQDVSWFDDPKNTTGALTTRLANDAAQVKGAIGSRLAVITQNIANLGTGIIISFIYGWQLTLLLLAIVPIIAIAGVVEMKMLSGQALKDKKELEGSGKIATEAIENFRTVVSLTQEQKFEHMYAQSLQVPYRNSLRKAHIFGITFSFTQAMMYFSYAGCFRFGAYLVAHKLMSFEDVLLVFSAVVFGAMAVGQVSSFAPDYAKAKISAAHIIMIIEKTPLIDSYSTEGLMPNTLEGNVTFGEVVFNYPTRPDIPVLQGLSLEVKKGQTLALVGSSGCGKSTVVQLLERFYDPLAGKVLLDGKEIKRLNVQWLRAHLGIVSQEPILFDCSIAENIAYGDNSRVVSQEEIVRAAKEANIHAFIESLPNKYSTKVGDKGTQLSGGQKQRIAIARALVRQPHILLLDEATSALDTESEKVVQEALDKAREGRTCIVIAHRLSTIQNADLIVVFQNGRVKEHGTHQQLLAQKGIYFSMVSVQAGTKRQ
T1 sequence (P08183 whole entry): as above
Chain of ABCC1/MRP1 (P33527 whole entry): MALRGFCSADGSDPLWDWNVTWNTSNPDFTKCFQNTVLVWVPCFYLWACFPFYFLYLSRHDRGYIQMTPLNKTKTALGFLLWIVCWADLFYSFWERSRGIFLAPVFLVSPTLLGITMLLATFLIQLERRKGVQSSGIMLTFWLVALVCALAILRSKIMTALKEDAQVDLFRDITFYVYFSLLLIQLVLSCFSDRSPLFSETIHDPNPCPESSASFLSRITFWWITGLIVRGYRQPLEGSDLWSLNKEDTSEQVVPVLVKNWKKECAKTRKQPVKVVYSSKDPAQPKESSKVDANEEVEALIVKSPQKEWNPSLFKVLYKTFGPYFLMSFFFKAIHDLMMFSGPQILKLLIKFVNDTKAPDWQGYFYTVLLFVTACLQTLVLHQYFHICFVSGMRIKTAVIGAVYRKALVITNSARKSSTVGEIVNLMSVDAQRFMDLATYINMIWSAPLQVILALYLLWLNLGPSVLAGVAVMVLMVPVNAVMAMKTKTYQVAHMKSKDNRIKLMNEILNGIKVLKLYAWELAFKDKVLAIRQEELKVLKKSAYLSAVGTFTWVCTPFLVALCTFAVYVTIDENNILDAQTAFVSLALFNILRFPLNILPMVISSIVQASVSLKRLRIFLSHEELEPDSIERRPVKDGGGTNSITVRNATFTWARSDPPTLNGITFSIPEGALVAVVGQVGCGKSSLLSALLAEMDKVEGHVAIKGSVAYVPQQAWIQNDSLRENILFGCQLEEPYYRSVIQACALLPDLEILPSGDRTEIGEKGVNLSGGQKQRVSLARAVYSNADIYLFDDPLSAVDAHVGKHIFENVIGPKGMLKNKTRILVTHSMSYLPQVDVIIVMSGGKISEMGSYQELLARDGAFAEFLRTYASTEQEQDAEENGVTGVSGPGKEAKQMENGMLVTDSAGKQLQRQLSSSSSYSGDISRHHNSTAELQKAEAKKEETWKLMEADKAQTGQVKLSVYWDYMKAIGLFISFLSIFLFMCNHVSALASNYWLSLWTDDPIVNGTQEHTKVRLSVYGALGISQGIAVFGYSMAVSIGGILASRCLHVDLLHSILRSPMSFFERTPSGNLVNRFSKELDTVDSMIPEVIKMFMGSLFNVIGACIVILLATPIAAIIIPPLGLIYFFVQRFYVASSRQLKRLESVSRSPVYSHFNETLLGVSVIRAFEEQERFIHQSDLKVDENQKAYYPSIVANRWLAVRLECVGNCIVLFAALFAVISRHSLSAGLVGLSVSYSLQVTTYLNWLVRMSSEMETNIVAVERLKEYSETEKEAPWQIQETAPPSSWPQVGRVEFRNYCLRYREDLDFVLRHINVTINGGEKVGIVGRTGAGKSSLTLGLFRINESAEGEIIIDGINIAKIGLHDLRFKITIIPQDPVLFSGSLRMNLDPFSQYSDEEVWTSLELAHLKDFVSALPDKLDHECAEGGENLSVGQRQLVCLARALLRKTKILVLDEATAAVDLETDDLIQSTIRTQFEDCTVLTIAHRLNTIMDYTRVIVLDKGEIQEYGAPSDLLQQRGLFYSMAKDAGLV

Row | Compound | EC50 (ABCB1/Pgp) [µM] | Concentration at which ABCB1-ATPase activity was increased (ABCB1/Pgp; Sf9/ABCB1 membranes) [µM] | Effect on ABCB1-ATPase activity (in words) (ABCB1/Pgp; Sf9/ABCB1 membranes, 50 µM verapamil as reference activator) | IC50 (OATP2B1 [1]) [µM] | IC50 (OATP1A2) [µM] | Effect on ABCB1 ATP-dependent NMQ uptake (in words) (ABCB1/MDR1/Pgp [2]) | IC50 at 1 min (ABCB1/MDR1/Pgp [3]; probe 3H-N-methyl-quinidine (NMQ), 1 µM) [µM] | IC50 at 3 min (ABCC1/MRP1; inverted membrane vesicles from Sf9 cells expressing ABCC1, probe 3H-estradiol-17b-glucuronide (ETGB), 0.2 µM) [µM] | Effect on OATP2B1 activity (in words) (OATP2B1 [4]) | IC50 at 1 min (ABCB1/MDR1/Pgp [3]; Estimated Transporter Inhibition IC50, ABCB1 vesicular assay, ATP-dependent NMQ uptake, HEK-293/ABCB1 inverted membrane vesicles, '-' = no inhibition) [µM] | IC50 at 3 min (ABCC1/MRP1) [µM]
1 | CCC(CC)COC(=O)[C@H](C)N[P@](=O)(OC[C@H]1O[C@@](C#N)(c2ccc3c(N)ncnn23)[C@H](O)[C@@H]1O)Oc1ccccc1 [remdesivir] | ~10 | 10 to 50 | significant ABCB1-ATPase stimulation | 3.8 | 3.8 | – | – | – | – | – | –
2 | NC(=O)c1nc(F)c[nH]c1=O [favipiravir] | – | – | – | – | – | no inhibitory effect | > 50 | > 50 | no interaction | – | –
3 | CCN(CCO)CCCC(C)Nc1ccnc2cc(Cl)ccc12 (stereo not drawn) [hydroxychloroquine] | – | – | – | 84 | 18.9 | practically no effect | – | – | only modest inhibition | > 50 | > 50

— PMC7827085 (Pharmaceutics, 2021)
